In paper PMC10682503, “Structural and functional basis of inositol hexaphosphate stimulation of NHEJ through stabilization of Ku-XLF interaction” (Nucleic Acids Research, 2023):
Where a name gives a salt, the structure may show the parent alone. One block for each molecule: values may come before it.

Assays:
[1] = system: Ku70-Ku80 full length (KuFL, His-Ku80) (human); assay: switchSENSE; settings: Single-molecule: 20 mM Tris pH 7.5, 100 mM KCl, 2.5 mM MgCl2, 1 mg/mL BSA, 2 mM DTT, 0.8% glucose, 0.1% Trolox, 1% GLOX, 1 nM Ku, switchSENSE (15-240 nM Ku) …
HEK-293T cells = assay: Dual dEJ/HR reporter assay; type: cell-based, human; settings: versus control without inhibitors; for expression of the HR marker BFP / HR activity: NU7441 3 μM or B02 10 μM
Text: The dEJ-HR dual reporter substrate for both direct end-joining and homologous recombination was assembled into the pEGFP-N1 vector (Clontech) following sequential insertion of various PCR products, oligonucleotide linkers and synthetic DNA fragments (see Supplementary Information for a detailed description). The Cas9 and guide RNA co-expression plasmid used to cleave the reporter substrate was generated by inserting the pre-annealed gRNA-dEJ-HR-F and gRNA-dEJ-HR-R oligonucleotides into the BbsI restriction sites of pX330-U6-Chimeric_BB-CBh-hSpCas9 (a gift from Feng Zhang; Addgene plasmid # 42230; http://n2t.net/addgene:42230; RRID:Addgene_42230). The pmCherry-NLS plasmid (a gift from Martin Offterdinger; Addgene plasmid # 39319; http://n2t.net/addgene:39319; RRID:Addgene_39319) was used as an internal control of transfection efficiency in end-joining assays.
Cell lines and cultures are described in Figure 5 legend. HEK-293T cells were seeded in 6-well plates and transfected 24 h later with a mix of reporter substrate (500 ng), Cas9/gRNA expressing vector (300 ng) and pmCherry-NLS control plasmid (200 ng) using JetPEI (PolyPlus-Transfection, Illkirch-Graffenstaden, France). When indicated, cells were treated at the time of transfection with 3 μM DNA-PK inhibitor NU7441 (Tocris, Bristol, UK) or 10 μM Rad51 inhibitor B02 (Sigma-Aldrich St. Louis, MO). Cells were trypsinized 2 days post-transfection, washed with PBS and analysed by flow cytometry on a Fortessa X-20 cell analyzer (BD Biosciences). For each cell population, the integrated fluorescence signal (% positive cells × mean fluorescence) was calculated for each repair readout (i.e. GFP for direct end-joining and BFP for gene conversion) and normalized to that of transfection control (mCherry). Western blots, antibodies, oligonucleotides, plasmids and DNA manipulations, generation of U2OS shKu80 cells and generation of HEK-293T mAID-Ku70/mAID-Ku80 cells are described in Supplemental Information.

[2] = biological target: T1, KuFL (full-length human Ku70–Ku80 heterodimer) (Homo sapiens, UniProt P12956+P13010); assay: Isothermal titration calorimetry (ITC), KuFL with IP6 and IP6 analogues; type: binding; settings: 25 °C, Ku 4 µM in cell, IPs 40 µM in syringe
T1 construct: The full-length human Ku heterodimer subunits (Ku70 1–609, Ku80 1–732); 10x His-tag with TEV site (N); made in house; host or cells: Sf21 insect cells (baculovirus, MultiBac)
T1 sequence (P12956 whole entry): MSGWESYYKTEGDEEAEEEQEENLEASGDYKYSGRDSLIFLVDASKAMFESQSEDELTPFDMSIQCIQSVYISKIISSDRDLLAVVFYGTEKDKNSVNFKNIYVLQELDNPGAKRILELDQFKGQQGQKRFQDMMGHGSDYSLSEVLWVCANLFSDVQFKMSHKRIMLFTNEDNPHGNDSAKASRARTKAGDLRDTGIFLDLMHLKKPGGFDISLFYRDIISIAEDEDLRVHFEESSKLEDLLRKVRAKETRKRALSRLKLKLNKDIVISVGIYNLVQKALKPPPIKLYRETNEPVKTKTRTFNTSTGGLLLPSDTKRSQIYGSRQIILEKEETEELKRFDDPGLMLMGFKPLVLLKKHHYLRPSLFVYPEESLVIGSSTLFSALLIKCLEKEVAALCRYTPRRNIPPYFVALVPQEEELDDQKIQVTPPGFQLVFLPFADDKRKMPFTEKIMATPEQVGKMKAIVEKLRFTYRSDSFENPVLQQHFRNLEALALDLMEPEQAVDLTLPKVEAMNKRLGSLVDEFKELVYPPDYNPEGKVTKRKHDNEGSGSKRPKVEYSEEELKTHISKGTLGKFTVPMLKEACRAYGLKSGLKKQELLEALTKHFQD
T1 sequence (P13010 whole entry): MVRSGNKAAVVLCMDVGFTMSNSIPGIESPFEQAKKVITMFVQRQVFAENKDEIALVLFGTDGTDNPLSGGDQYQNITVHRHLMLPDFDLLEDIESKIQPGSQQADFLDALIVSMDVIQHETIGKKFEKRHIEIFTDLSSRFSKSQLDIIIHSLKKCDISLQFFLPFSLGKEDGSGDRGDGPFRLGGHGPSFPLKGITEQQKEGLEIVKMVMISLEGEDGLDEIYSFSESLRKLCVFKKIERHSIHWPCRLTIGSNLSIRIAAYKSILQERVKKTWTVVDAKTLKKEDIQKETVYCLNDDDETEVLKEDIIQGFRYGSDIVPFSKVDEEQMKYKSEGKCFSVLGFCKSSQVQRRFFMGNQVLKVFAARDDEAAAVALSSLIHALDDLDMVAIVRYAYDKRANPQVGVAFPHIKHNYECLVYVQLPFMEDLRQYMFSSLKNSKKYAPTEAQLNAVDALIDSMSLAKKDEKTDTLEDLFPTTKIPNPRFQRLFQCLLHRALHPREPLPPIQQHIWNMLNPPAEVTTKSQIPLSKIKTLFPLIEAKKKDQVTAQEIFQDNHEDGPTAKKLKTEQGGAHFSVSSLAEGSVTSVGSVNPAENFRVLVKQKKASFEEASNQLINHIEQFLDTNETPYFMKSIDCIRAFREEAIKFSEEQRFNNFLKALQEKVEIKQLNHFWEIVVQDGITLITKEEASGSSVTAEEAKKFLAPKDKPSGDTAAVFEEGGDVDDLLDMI
Description: Purification of Ku full-length (KuFL) for cryo-EM experiments was carried out as described previously ([5]). Expression and purification of KuFL for biophysical experiments was carried out as described previously ([20]). The full-length human Ku heterodimer subunits (Ku70 1–609, Ku80 1–732) were cloned into a Multibac vector ([21]). The construct has a 10× His-tag and a TEV site on the N-terminus of Ku80 and no-tag on Ku70. Protein production was initiated in Sf21 cells by infection with the baculovirus stock at MOI of 5 × 10^−3 and cells were collected 5–6 days after the infection (3–4 days after the proliferation arrest). Cells were sonicated and the supernatant was incubated with Benzonase (300 units for 30 min at 4°C). The Ku heterodimer was purified on a NiNTA-Agarose affinity column (Protino, Macherey Nagel) with a 1 M NaCl wash step to remove DNA excess. The eluted Ku was then bound onto an anion exchange column (Resource Q, Cytiva) equilibrated in 20 mM Tris pH 8.0, 50 mM NaCl, 50 mM KCl, 10 mM β-mercaptoethanol and eluted with a salt gradient. The final yield was about 20 mg of purified heterodimer per litre of culture. KuΔC constructs, heterodimer deleted of its C-terminal region (Ku70 1–544, Ku80 1–551) for X-ray crystallography, Ku mutants, Ku-2E (Ku with mutation in K357E on Ku70 and K481E on Ku80) and Ku-4E (Ku with mutations in H359E and H360E on Ku70 and K413E and H414E on Ku80) were cloned in the same vector and produced following the same protocol as KuFL expressed in Sf21 insect cells.
Calorimetry. Interactions between KuFL and inositol phosphates (IPs) (IP6 and IP6 analogues) were determined by Isothermal Titration Calorimetry (ITC) using a VP-ITC calorimeter (Malvern). Prior to measurements, all solutions were degassed under vacuum. The reaction cell of the ITC (volume 1.8 mL) was loaded with Ku heterodimers at 4 µM concentration. […] The free energy of binding (ΔG) and the entropy (ΔS) were determined using the classical thermodynamic formula, ΔG = - RT ln(Ka) and ΔG = ΔH - TΔS. […]

[3] = system: HEK-293T cells expressing Ku-wt; assay: Cell fractionation and western blot of chromatin and soluble fractions; type: cell-based, human; settings: 1 h
Description: Stock solution of Calicheamicin γ1 (Cali), gift from P.R. Hamann (Wyeth Research, Pearl River, NY, USA), was made at 40 μM in ethanol and stored at –20°C. For drug-exposure, exponentially growing cells in […] were either mock-treated or treated with Cali in fresh medium for 1 h at 37°C. Then cells were washed with phosphate-buffered saline and trypsinized. Pellets were fractionated as follows. Cells were first resuspended for 7 min on ice in 120 μL of extraction buffer 1 (50 mM HEPES pH 7.5, 150 mM NaCl, 1 mM EDTA) containing 0.1% Triton X-100 and supplemented with the Halt protease and phosphatase inhibitor cocktail (Thermo Fisher Scientific) with intermittent gentle vortexing. […] Protein content was measured with BCA reagent (Pierce) and equivalent protein amounts were denaturated in loading buffer at 1× final concentration (50 mM Tris–HCl pH 6.8, 10% glycerol, 1% SDS, 300 mM 2-mercaptoethanol, 0.01% bromophenol blue) at 95°C for 5 min, separated on SDS-PAGE gels (BioRad 4–15% TGX pre-cast gels) before overnight transfer onto Immobilon-P polyvinylidene difluoride (PVDF, Millipore) membranes. […]

[4] = biological target: full-length human Ku70–Ku80 heterodimer (KuFL), expressed in Sf21 insect cells (human) (UniProt P12956); assay: switchSENSE; fluorescent DNA hybridised on the gold surface of the chip, Ku bound to this DNA in saturating conditions, then XLF injected (1, 2 and 8 μM); absence of IP6; biphasic, two steps binding mode fit; apparent affinities
Chain of full-length human Ku70–Ku80 heterodimer (KuFL), expressed in Sf21 insect cells (human) (P12956 whole entry, chain 1 of 2): as the sequence (P12956 whole entry) above
Chain of full-length human Ku70–Ku80 heterodimer (KuFL), expressed in Sf21 insect cells (human) (P13010 whole entry, chain 2 of 2, further chain): as the sequence (P13010 whole entry) above

[5] = biological target: full-length human Ku70–Ku80 heterodimer (KuFL), expressed in Sf21 insect cells (human) (UniProt P12956); assay: switchSENSE; fluorescent DNA hybridised on the gold surface of the chip, Ku bound to this DNA in saturating conditions, then XLF injected (1, 2 and 8 μM); 20 μM IP6 during Ku association and XLF titration; biphasic, two steps binding mode fit; apparent affinities

Chain of XLF (Q9H9Q4 whole entry): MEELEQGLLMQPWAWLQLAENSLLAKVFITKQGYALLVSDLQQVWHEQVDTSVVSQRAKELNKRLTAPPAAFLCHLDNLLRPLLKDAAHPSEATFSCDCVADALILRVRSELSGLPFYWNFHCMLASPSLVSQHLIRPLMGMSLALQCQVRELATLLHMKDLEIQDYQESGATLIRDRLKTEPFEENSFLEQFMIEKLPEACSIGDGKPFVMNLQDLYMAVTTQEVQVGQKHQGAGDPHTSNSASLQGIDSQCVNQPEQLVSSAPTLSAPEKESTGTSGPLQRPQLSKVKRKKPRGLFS

Molecule: 48 bp dsDNA (switchSENSE)
Kd ([1]; 3 uM IP6, kon 6.35e5 M-1 s-1, koff 1.27e-3 s-1): 0.00199 µM
Kd ([1]; no IP6, kon 6.94e5 M-1 s-1, koff 2.26e-3 s-1): 0.00325 µM

Molecule: O=c1c2ccccc2nc(/C=C/c2cccnc2)n1Cc1ccccc1 [B02]
expression of the HR marker BFP / HR activity (HEK-293T cells): decreased

Kd [2]: 0.022 ± 0.0068 µM
Molecule: O=P(O)(O)OC1C(OP(=O)(O)O)C(OP(=O)(O)O)C(OP(=O)(O)O)C(OP(=O)(O)O)C1OP(=O)(O)O [D-chiro-IP6, D-chiro-inositol 1,2,3,4,5,6-hexakisphosphate sodium salt]

Molecule: O=c1cc(N2CCOCC2)oc2c(-c3cccc4c3sc3ccccc34)cccc12 [NU7441]
expression of the HR marker BFP / HR activity (HEK-293T cells): compensatory increase in HR
expression of the direct EJ (dEJ) marker GFP (HEK-293T cells; NU7441 3 μM): decreased

Molecule: O=P(O)(O)O[C@H]1[C@H](OP(=O)(O)O)[C@@H](OP(=O)(O)O)[C@H](OP(=O)(O)O)[C@@H](OP(=O)(O)O)[C@H]1OP(=O)(O)O [scyllo-IP6, scyllo-inositol hexakisphosphate sodium salt]
Kd [2]: 0.018 ± 0.0025 µM

Molecule: Calicheamicin γ1
XLF, Lig4 and PAXX in the soluble proteins fraction ([3]; highest dose of calicheamicin): depleted from the soluble proteins fraction
NHEJ proteins including XLF and PAXX in the chromatin fraction ([3]; increasing concentrations of calicheamicin): increasingly detected in the chromatin fraction

KD1 (first of two apparent affinities, biphasic fit; without IP6) [4]: 3.6 µM
KD2 (second of two apparent affinities, biphasic fit; without IP6) [4]: 1.9 µM
KD1 (first of two apparent affinities, biphasic fit; with 20 μM IP6) [5]: 1.2 µM
KD2 (second of two apparent affinities, biphasic fit; with 20 μM IP6) [5]: 0.13 µM
Molecule: XLF (from UniProt Q9H9Q4 1-299) (natural protein)
